Experimental data as given in patent publication US7169932B2 (priority 2001, dated 2007).
Like-named read-outs stand apart in the source and are kept apart here.

What was measured:
HIV-1 protease (Q7S) = target: T1, HIV-1 protease (Q7S) (Human immunodeficiency virus type 1 group M subtype B, UniProt P04585, Q495S); assay: HIV-1 Protease RET Assay; format: biochemical
T1 construct: made in house
In short: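 Ki values came from a RET assay on refolded Q7S protease (2 nM active dimer) cleaving RE(EDANS)SQNYPIVQK(DABCYL)R at 5 μM, read at ex 340/em 490 nm. Reactions ran 12 min at 37 C in 0.1M sodium acetate pH 4.8, 1M NaCl, 5 mM DTT, 10% DMSO; curves were fit with the Morrison tight-binding equation.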

HIV-1 = assay: Cytopathic Effect (CPE) Inhibition Assay (XTT dye reduction); format: cell-based
Method: T-cell lines, CEM-SS, and MT-2, and viruses HIV-1 RF and HIV-1 NL4–3 (pNL4–3) were obtained from the National Institutes of Health (AIDS Research and Reference Reagent Program, Bethesda, Md.).
The ability of compounds to protect cells against HIV infection was measured by the […] dye reduction method, essentially as described (See Pauwels, R. Balzarini, J. Baba, M. Snoeck, R. Schols, D. Herdewijn, P. Desmyter, J. and De Clercq, E. 1988, “Rapid and automated tetrazolium-based colorimetric assay for the detection of anti-HIV compounds,”. J Virol Methods., 20: 309–321 and Weislow, O. S. Kiser, R. Fine, D. L. Bader, J. Shoemaker, R. H. and Boyd, M. R. 1989. “New soluble-formazan assay for HIV-1 cytopathic effects: application to high-flux screening of synthetic and natural products for AIDS-antiviral activity”. J. Natl. Cancer Inst. 81:577–586). Subject cells were infected with test virus at an moi of 0.025 to 0.819 or mock infected with medium only and added at 2×10^4 cells per well into 96 well plates containing half-log dilutions of test compounds. Six days later, 50 μl of XTT (1 mg/ml XTT tetrazolium, […] phenazine methosulfate) was added to the wells and the plate was reincubated for four hours. Viability, as determined by the amount of XTT formazan produced, was quantified spectrophotometrically by absorbance at 450 nm. Data from CPE assays were expressed as the percent of formazan produced in compound-treated cells compared to formazan produced in wells of uninfected, compound-free cells. The fifty percent effective concentration (EC50) was calculated as the concentration of compound that effected an increase in the percentage of formazan production in infected, compound-treated cells to 50% of that produced by uninfected, compound-free cells. The 50% cytotoxicity concentration (CC50) was calculated as the concentration of compound that decreased the percentage of formazan produced in uninfected, compound-treated cells to 50% of that produced in uninfected, compound-free cells. The therapeutic index was calculated by dividing the cytotoxicity (CC50) by the antiviral activity (EC50).

[1] = Ave. Ki (nM), RET assay, Q7S enzyme, pH 4.8, 37 C
[2] = Human immunodeficiency virus 1, 144 h, read-out: Ave CPE EC50 (mM)
[3] = Ki, table of drawn compounds, unit inferred

| SMILES | Ki (HIV-1 protease (Q7S); [1]) [nM] | EC50 (HIV-1; [2]) [nM] | Ki (HIV-1 protease (Q7S); [3]) [nM] | EC50 (HIV-1; Human immunodeficiency virus 1) [nM] |
| --- | --- | --- | --- | --- |
| Cc1c(O)cccc1C(=O)N[C@@H](Cc1ccccc1)[C@H](O)C(=O)N1CSC(C)(C)[C@H]1C(=O)NCc1ccc(S(C)(=O)=O)cc1 [Example A13, 3-[2-Hydroxy-3-(3-hydroxy-2-methyl-benzoylamino)-4-phenyl-butyryl]-5,5-dimethyl-thiazolidine-4-carboxylic acid 4-methanesulfonyl-benzamide] | 44.1 | > 1000 | – | – |
| Cc1c(O)cccc1C(=O)N[C@@H](Cc1ccccc1)[C@H](O)C(=O)N1CSC(C)(C)C1C(=O)NCCC(C)C (stereo partly drawn) | – | – | ≤ 0.1 | 72 |
| Cc1c(O)cccc1C(=O)N[C@@H](Cc1ccccc1)[C@H](O)C(=O)N1CSC(C)(C)[C@H]1C(=O)NCc1ccc(F)cc1C(F)(F)F [Example A12] | 1.7 | 1090 | – | – |
| Cc1ccccc1CNC(=O)[C@H]1N(C(=O)[C@@H](O)[C@H](Cc2ccccc2)NC(=O)c2ccc(F)cc2C)CSC1(C)C [Example B37, (R)-3-((2S,3S)-3-{[1-(4-Fluoro-2-methyl-phenyl)-methanoyl]-amino}-2-hydroxy-4-phenyl-butanoyl)-5,5-dimethyl-thiazolidine-4-carboxylic acid 2-methyl-benzylamide] | 0.11 | 736 | – | – |
| Cc1c(O)cccc1C(=O)N[C@@H](Cc1ccccc1)[C@H](O)C(=O)N1CSC(C)(C)[C@H]1C(=O)NCc1ccc(OC(F)(F)F)cc1 [Example A47, (R)-3-((2S,3S)-2-Hydroxy-3-{[1-(3-hydroxy-2-methyl-phenyl)-methanoyl]-amino}-4-phenyl-butanoyl)-5,5-dimethyl-thiazolidine-4-carboxylic acid 4-trifluoromethoxy-benzylamide] | 2.3 | 1810 | – | – |
| Cc1ccccc1CNC(=O)[C@H]1N(C(=O)[C@@H](O)[C@H](Cc2ccccc2)NC(=O)c2cnc(C(F)(F)F)[nH]c2=O)CSC1(C)C | – | – | 1700 | ≥ 10000 |
| Cc1c(O)cccc1C(=O)N[C@@H](Cc1ccccc1)[C@H](O)C(=O)N1CSC(C)(C)[C@H]1C(=O)NCc1cccc(N)c1 [Example A29, (R)-3-((2S,3S)-2-Hydroxy-3-{[1-(3-hydroxy-2-methyl-phenyl)-methanoyl]-amino}-4-phenyl-butanoyl)-5,5-dimethyl-thiazolidine-4-carboxylic acid 3-amino-benzylamide] | < 0.1 | 117 | – | – |
| Cc1ccccc1CNC(=O)[C@@H]1[C@H](C)OCN1C(=O)[C@@H](O)[C@H](Cc1ccccc1)NC(=O)c1cccc(O)c1C [Example C8, (4S,5S)-3-((2S,3S)-2-Hydroxy-3-{[1-(3-hydroxy-2-methyl-phenyl)-methanoyl]-amino}-4-phenyl-butanoyl)-5-methyl-oxazolidine-4-carboxylic acid 2-methyl-benzylamide] | 0.26 | 447 | – | – |
| Cc1c(O)cccc1C(=O)N[C@@H](Cc1ccccc1)[C@H](O)C(=O)N1CSC(C)(C)[C@H]1C(=O)NCc1ccc(F)c(F)c1F | – | – | 0.11 | 334 |
| Cc1ccccc1CNC(=O)[C@H]1N(C(=O)[C@@H](O)[C@H](Cc2ccccc2)NC(=O)c2sc(N)nc2C)CSC1(C)C [Example B15, 2-Amino-4-methyl-thiazole-5-carboxylic acid {(S)-1-benzyl-3-[5,5-dimethyl-4-(2-methyl-benzylcarbamoyl)-thiazolidin-3-yl]-2-hydroxy-3-oxo-propyl}-amide] | 2 | 1090 | – | – |
| Cc1cc(C(=O)N[C@@H](Cc2ccccc2)[C@H](O)C(=O)N2CSC(C)(C)[C@H]2C(=O)NCc2ccccc2C)n[nH]1 | – | – | 19.5 | 3000 |
| Cc1c(O)cccc1C(=O)N[C@@H](Cc1ccccc1)[C@H](O)C(=O)N1CSC(C)(C)[C@H]1C(=O)NCc1cc(F)c(F)cc1F | – | – | 0.17 | 289 |
| Cc1ccccc1CNC(=O)[C@H]1N(C(=O)[C@@H](O)[C@H](Cc2ccccc2)NC(=O)c2ccccc2Cl)CSC1(C)C | – | – | 0.2 | 585 |
| C=CCNC(=O)[C@H]1N(C(=O)[C@@H](O)[C@H](Cc2ccccc2)NC(=O)[C@@H]2CCCO2)CSC1(C)C | – | – | 17.3 | 3300 |
| Cc1ccccc1CNC(=O)[C@H]1N(C(=O)[C@@H](O)[C@H](Cc2ccccc2)NC(=O)c2c(C)nn(C)c2Cl)CSC1(C)C [Example B14, 3-{(S)-3-[(5-Chloro-1,3-dimethyl-1H-pyrazole-4-carbonyl)-amino]-2-hydroxy-4-phenyl-butyryl}-5,5-dimethyl-thiazolidine-4-carboxylic acid 2-methyl-benzylamide] | 3.7 | 3050 | – | – |
| C=CCN(C)C(=O)[C@H]1N(C(=O)[C@@H](O)[C@H](Cc2ccccc2)NC(=O)c2cccc(O)c2C)CSC1(C)C [Example A23, (R)-3-((2S,3S)-2-Hydroxy-3-{[1-(3-hydroxy-2-methyl-phenyl)-methanoyl]-amino}-4-phenyl-butanoyl)-5,5-dimethyl-thiazolidine-4-carboxylic acid allyl-methyl-amide] | 0.65 | 72 | – | – |
| Cc1c(O)cccc1C(=O)N[C@@H](Cc1ccccc1)[C@H](O)C(=O)N1CSC(C)(C)[C@H]1C(=O)NCc1ccc(C(F)(F)F)c(F)c1 [Example A11] | 19 | 930 | – | – |
| Cc1ccccc1CNC(=O)[C@H]1N(C(=O)[C@@H](O)[C@H](Cc2ccccc2)NC(=O)c2cccn2C)CSC1(C)C [Example B12, (R)-3-{(2S,3S)-2-Hydroxy-3-[(1-methyl-1H-pyrrole-2-carbonyl)-amino]-4-phenyl-butyryl}-5,5-dimethyl-thiazolidine-4-carboxylic acid 2-methyl-benzylamide] | 0.45 | 1400 | – | – |
| Cc1cc(C(=O)N[C@@H](Cc2ccccc2)[C@H](O)C(=O)N2CSC(C)(C)[C@H]2C(=O)NCc2ccc(Cl)cc2C)no1 | – | – | 28 | 4130 |
| Cc1ccc(C(=O)N[C@@H](Cc2ccccc2)[C@H](O)C(=O)N2CSC(C)(C)[C@H]2C(=O)CCC(F)(F)F)c(C)c1O | – | – | 9.6 | 723 |
| Cc1ccccc1CNC(=O)[C@H]1N(C(=O)[C@@H](O)[C@H](Cc2ccccc2)NC(=O)c2c[nH]cn2)CSC1(C)C | – | – | 55.8 | ≥ 10000 |
| Cc1ccccc1CNC(=O)[C@H]1N(C(=O)[C@@H](O)[C@H](Cc2ccccc2)NC(=O)N2CCSC2)CSC1(C)C | – | – | 14 | 1510 |
| Cc1ccccc1CNC(=O)[C@@H]1C[C@H](F)CN1C(=O)[C@@H](O)[C@H](Cc1ccccc1)NC(=O)c1cccc(O)c1C [Example C3, (2S,4S)-4-Fluoro-1-[(2S,3S)-2-hydroxy-3-(3-hydroxy-2-methyl-benzoylamino)-4-phenyl-butyryl]-pyrrolidine-2-carboxylic acid 2-methyl-benzylamide] | 1.3 | 500 | – | – |
| Cc1c(O)cccc1C(=O)N[C@@H](Cc1ccccc1)[C@H](O)C(=O)N1CSC(C)(C)[C@H]1C(=O)NCCC(F)(F)F [Example A45, (R)-3-((2S,3S)-2-Hydroxy-3-{[1-(3-hydroxy-2-methyl-phenyl)-methanoyl]-amino}-4-phenyl-butanoyl)-5,5-dimethyl-thiazolidine-4-carboxylic acid (3,3,3-trifluoro-propyl)-amide] | 0.51 | 165 | – | – |
| Cc1ccccc1CNC(=O)[C@H]1N(C(=O)[C@@H](O)[C@H](Cc2ccccc2)NC(=O)c2cccc(F)c2C)COC1(C)C [Example C11, (S)-3-((2S,3S)-3-{[1-(3-Fluoro-2-methyl-phenyl)-methanoyl]-amino}-2-hydroxy-4-phenyl-butanoyl)-5,5-dimethyl-oxazolidine-4-carboxylic acid 2-methyl-benzylamide] | 1.1 | 1560 | – | – |
| Cc1ccccc1CN(CCO)C(=O)[C@H]1N(C(=O)[C@@H](O)[C@H](Cc2ccccc2)NC(=O)c2cccc(O)c2C)CSC1(C)C [Example A50, (R)-3-((2S,3S)-2-Hydroxy-3-{[1-(3-hydroxy-2-methyl-phenyl)-methanoyl]-amino}-4-phenyl-butanoyl)-5,5-dimethyl-thiazolidine-4-carboxylic acid (2-hydroxy-ethyl)-(2-methyl-benzyl)-amide] | 0.26 | 224 | – | – |
| C=CCN(C)C(=O)[C@H]1N(C(=O)[C@@H](O)[C@H](Cc2ccccc2)NC(=O)c2ccno2)CSC1(C)C | – | – | 24.6 | 4950 |
